# Assay results reported in patent publication CN102066974A, “用于蛋白、肽和其他分子的f-18标记的改进方法和组合物” (Immunomedics Inc, priority 2008, dated 2011).
# “And” between values parts separate entries of the source, which are not always exact repeats. Equal values may be shown once. Numbered stars: 1 amine (or outer) side, 2 acyl side, 3 side chain; on linkers, the order of the positions; unused ones are H or OH. Square brackets hold non-standard residues; d marks the D form. Side chains are listed from the residue outwards. Peptide text beside a SMILES is read from it. * marks the point of attachment. NOTA(2S-Bn(4-NHCS)) = O=C(O)CN1CCN(CC(=O)O)C[C@H](Cc2ccc(NC(=S)*)cc2)N(CC(=O)O)CC1; X1 = O=C(O)CN1CCN(CC(=O)O)CC(Cc2ccc(NC(=S)*)cc2)N(CC(=O)O)CC1; DOTA = O=C(O)CN1CCN(CC(=O)O)CCN(CC(=O)*)CCN(CC(=O)O)CC1; DTPA = O=C(O)CN(CCN(CC(=O)O)CC(=O)O)CCN(CC(=O)O)CC(=O)*; NH(2-(imidazol-4-yl)ethyl) = c1ncc(CCN*)[nH]1; NOTA = O=C(O)CN1CCN(CC(=O)O)CCN(CC(=O)*)CC1; X2 = N[C@H](CC(=O)*)c1ccccc1Br; Suc = O=C(CCC(=O)[*:2])[*:1]; Dap = NC[C@H](N)C(=O)O; Aoc = NCCCCCCCC(=O)O
# Assays:
# [1] = system: AR42J肿瘤; assay: Biodistribution in BALB/c nude mice with s.c. AR42J tumours; type: in vivo, mouse; settings: 2 h p.i.
# [2] = Stability of labelled peptide in human serum at 37℃, HPLC; type: in vitro ADME; settings: for activity still attached to peptide: crude 18F labelling mixture (35% bound at start), pooled human serum 37℃; for 18F-labelled peptide stable in serum: purified 18F-labelled peptide
# [3] = target: RIIα二聚体 (Homo sapiens, UniProt P13861); settings: Stokka et al. 2006; cited from earlier work
# [4] = system: LS174T肿瘤; assay: TF2-pretargeted biodistribution in BALB/c nude mice with s.c. LS174T tumours (Example 27)
# [5] = system: LS174T肿瘤; assay: PET/CT image quantification (region of interest ratios); settings: mouse, in vivo
# [6] = system: PC-3细胞; type: binding; settings: first experiment, inhibitor 56 to 0.44 nM
# [7] = system: H1和H2组胺受体; assay: In vitro study on cell lines bearing H1 and H2 histamine receptors; type: cell-based
# [8] = in vivo
# [9] = system: CaPan1异种移植物; assay: TF10-pretargeted biodistribution in nude mice with CaPan1 xenografts; type: in vivo, mouse; settings: 1 h after peptide, TF10 (162μg) pretargeted 18 h before
# [10] = Biodistribution of unbound 18F fraction and purified [Al18F]IMP 449 in SCID mice, no pretargeting; type: in vivo, mouse; settings: 1 h p.i., no bsMAb
# [11] = system: LS174 T异种移植物; assay: Biodistribution of 111In-IMP 449 and [Al18F]IMP 449 with or without TF2 in nude mice with sc LS174T xenografts; type: in vivo, mouse; settings: 1 h after peptide
# [12] = Stability of Al18F-peptide complex in water (peptide labelling screen); type: physicochemical
# Sequence of RIIα二聚体 (P13861 whole entry): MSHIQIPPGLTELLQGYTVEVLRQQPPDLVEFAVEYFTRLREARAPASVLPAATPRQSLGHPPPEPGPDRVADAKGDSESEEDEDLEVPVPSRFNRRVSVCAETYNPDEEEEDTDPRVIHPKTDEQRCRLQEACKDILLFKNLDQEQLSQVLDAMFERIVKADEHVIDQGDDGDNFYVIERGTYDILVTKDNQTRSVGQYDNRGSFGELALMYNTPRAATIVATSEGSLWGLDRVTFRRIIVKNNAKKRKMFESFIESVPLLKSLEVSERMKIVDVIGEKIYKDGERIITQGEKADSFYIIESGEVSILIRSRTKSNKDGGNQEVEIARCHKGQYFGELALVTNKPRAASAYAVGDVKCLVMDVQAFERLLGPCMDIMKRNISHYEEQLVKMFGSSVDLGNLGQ
compound,measurement,setting,value
"C[C@@H](O)[C@@H]1NC(=O)[C@H](CCCCN)NC(=O)[C@@H](Cc2c[nH]c3ccccc23)NC(=O)[C@H](Cc2ccccc2)NC(=O)[C@@H](NC(=O)[C@@H](Cc2ccccc2)NC(=O)CN2CCN(CC(=O)O)CCN(CC(=O)O)CC2)CSSC[C@@H](C(=O)N[C@H](CO)[C@@H](C)O)NC1=O [68Ga-IMP 466, metal not drawn]",AR42J tumour uptake,[1],29.2±0.5 %ID/g
same,kidney retention,[1],16.2±2.86 %ID/g
same,lung uptake,[1],4.0±0.9 %ID/g
C-NETA-琥珀酰-D-Lys(HSG)-D-Tyr-D-Lys(HSG)-NH2 [IMP 467],decomposition of 18F-labelled peptide in serum,"[2]; HLB-purified, human serum 37℃, 5 h",没有可检测的分解
FEELAWKIAKMIWSDVFQQC [PV-38],PKA isoform preference,[3],对RI更大的亲和力
"NC(=O)[C@@H](CCCCNC(=O)CNC(=O)CCC(=O)NCCc1c[nH]cn1)NC(=O)[C@@H](CCC(=O)O)NC(=O)[C@@H](CCCCNC(=O)CNC(=O)CCC(=O)NCCc1c[nH]cn1)NC(=O)[C@@H](Cc1ccc(O)cc1)NC(=O)CN1CCN(CC(=O)O)CCN(CC(=O)O)CCN(CC(=O)O)CC1 [68Ga-IMP 288, metal not drawn] ({DOTA}-[dY][dK]([Gly-Suc-NH(2-(imidazol-4-yl)ethyl)])[dE][dK]([Gly-Suc-NH(2-(imidazol-4-yl)ethyl)])-NH2)",LS174T tumour uptake without TF2 pretargeting,[4]; 1 h p.i.,0.20±0.03 %ID/g
same,inflamed muscle-blood ratio,"[4]; mouse, in vivo",5.9±2.9
same,tumour-inflamed muscle ratio,"[4]; mouse, in vivo",12.5±2.1
same,inflamed muscle-background ratio in PET image,[5],8.9
same,tumour-inflamed tissue ratio in PET image,[5],5.4
C[C@@H](O)[C@@H]1NC(=O)[C@H](CCCCN)NC(=O)[C@@H](Cc2c[nH]c3ccccc23)NC(=O)[C@H](Cc2ccccc2)NC(=O)[C@@H](NC(=O)[C@@H](Cc2ccccc2)NC(=O)CN2CCN(CC(=O)O)CCN(CC(=O)O)CC2)CSSC[C@@H](C(=O)N[C@H](CO)[C@@H](C)O)NC1=O [Al18F-IMP 466],AR42J tumour uptake,[1],28.3±5.7 %ID/g
same,blood level,[1],0.10±0.07 %ID/g
same,bone uptake,[1],0.33±0.07 %ID/g
same,kidney retention,[1],9.96±1.27 %ID/g
same,lung uptake,[1],1.9±0.4 %ID/g
same,tumour-blood ratio,[1],299±88
same,AR42J tumour uptake with excess unlabelled IMP 466,[1]; receptor blocking,8.6±0.7 %ID/g
CSCC[C@H](NC(=O)[C@H](CC(C)C)NC(=O)[C@H](Cc1c[nH]cn1)NC(=O)CNC(=O)[C@@H](NC(=O)[C@H](C)NC(=O)[C@H](Cc1c[nH]c2ccccc12)NC(=O)[C@@H](NC(=O)[C@H](Cc1c[nH]c2ccccc12)NC(=O)[C@H](CCC(N)=O)NC(=O)CCCCCCCNC(=O)CN1CCN(CC(=O)O)CCN(CC(=O)O)CC1)C(C)C)C(C)C)C(N)=O [IMP 468] ({NOTA-Aoc}-QWVWAVGHLM-NH2),blocking of 125I-BBN binding,[6],阻断125I-BBN的结合
DOTA-D-Tyr-D-Lys(HSG)-D-Glu-D-Lys(HSG)-NH2 [IMP 288],antagonist or agonist activity at histamine receptors,[7],没有拮抗或激动活性
same,histamine-related pharmacological activity in animals,[8],没有与组胺组分相关的肽的药理活性
C[C@@H](NC(=S)Nc1ccc(C[C@H]2CN(CC(=O)O)CCN(CC(=O)O)CCN2CC(=O)O)cc1)C(=O)N[C@H](CCCCNC(=O)CNC(=O)CCC(=O)NCCc1c[nH]cn1)C(=O)N[C@H](Cc1ccc(O)cc1)C(=O)N[C@H](CCCCNC(=O)CNC(=O)CCC(=O)NCCc1c[nH]cn1)C(N)=O [[Al18F]IMP 449] ({NOTA(2S-Bn(4-NHCS))}-[dA][dK]([Gly-Suc-NH(2-(imidazol-4-yl)ethyl)])[dY][dK]([Gly-Suc-NH(2-(imidazol-4-yl)ethyl)])-NH2),CaPan1 tumour uptake,[9],4.6±0.9 %ID/g
same,"大肠 (large intestine) uptake, individual animals",[10],0.167 %ID/g and 0.091 %ID/g and 0.094 %ID/g and 0.109 %ID/g
same,"大肠 (large intestine) uptake, mean",[10],0.115 %ID/g
same,"小肠 (small intestine) uptake, individual animals",[10],1.124 %ID/g and 1.247 %ID/g and 1.166 %ID/g and 1.624 %ID/g
same,"小肠 (small intestine) uptake, mean",[10],1.290 %ID/g
same,"肌肉 (muscle) uptake, individual animals",[10],0.077 %ID/g and 0.075 %ID/g
same,"脊骨 (spine) uptake, individual animals",[10],0.268 %ID/g
same,LS174T tumour uptake,"[4]; 6.0 nmol TF2 16 h before, 0.25 nmol peptide",10.6±1.7 %ID/g
same,bone uptake,"[4]; mouse, in vivo",0.54±0.2 %ID/g
same,"小肠 (small intestine) uptake, individual animals",[11]; TF2 163.2μg 16 h before,0.185 %ID/g
same,"肌肉 (muscle) uptake, individual animals",[11]; TF2 163.2μg 16 h before,0.064 %ID/g
same,"肝 (liver) uptake, individual animals",[11]; TF2 163.2μg 16 h before,0.196 %ID/g and 0.180 %ID/g
same,"肝 (liver) uptake, mean",[11]; TF2 163.2μg 16 h before,0.172 %ID/g
same,"股骨 (femur) uptake, mean",[11]; TF2 163.2μg 16 h before,0.625 %ID/g
same,"肺 (lung) uptake, individual animals",[11]; TF2 163.2μg 16 h before,0.474 %ID/g and 0.230 %ID/g
same,"胃 (stomach) uptake, mean",[11]; TF2 163.2μg 16 h before,0.218 %ID/g
same,"脾 (spleen) uptake, individual animals",[11]; TF2 163.2μg 16 h before,0.239 %ID/g and 0.118 %ID/g and 0.140 %ID/g
same,"大肠 (large intestine) uptake, individual animals",[11]; no pretargeting antibody,0.118 %ID/g
same,"大肠 (large intestine) uptake, mean",[11]; no pretargeting antibody,0.072 %ID/g
same,"肝 (liver) uptake, individual animals",[11]; no pretargeting antibody,0.141 %ID/g (2×) and 0.200 %ID/g and 0.185 %ID/g
same,"股骨 (femur) uptake, individual animals",[11]; no pretargeting antibody,0.080 %ID/g
same,"股骨 (femur) uptake, mean",[11]; no pretargeting antibody,0.100 %ID/g
same,"脑 (brain) uptake, individual animals",[11]; no pretargeting antibody,0.077 %ID/g
same,"脾 (spleen) uptake, mean",[11]; no pretargeting antibody,0.118 %ID/g
DTPA-Dpr(DTPA)-D-Ala-D-Lys(HSG)-D-Ala-D-Lys(HSG)-NH2 [IMP 333],blocking of 125I-BBN binding,[6],不能
LEQYANQLADQIIKEATE [RIAD],PKA isoform preference,[3],对RI更大的亲和力
"C[C@@H](NC(=S)Nc1ccc(CC2CN(CC(=O)O)CCN(CC(=O)O)CCN2CC(=O)O)cc1)C(=O)N[C@H](CCCCNC(=O)CNC(=O)CCC(=O)NCCc1c[nH]cn1)C(=O)N[C@H](Cc1ccc(O)cc1)C(=O)N[C@H](CCCCNC(=O)CNC(=O)CCC(=O)NCCc1c[nH]cn1)C(N)=O (stereo partly drawn) [111In-IMP 449, metal not drawn] (X1-[dA][dK]([Gly-Suc-NH(2-(imidazol-4-yl)ethyl)])[dY][dK]([Gly-Suc-NH(2-(imidazol-4-yl)ethyl)])-NH2)","大肠 (large intestine) uptake, individual animals",[11]; no pretargeting antibody,0.253 %ID/g
same,"大肠 (large intestine) uptake, mean",[11]; no pretargeting antibody,0.237 %ID/g
same,"胃 (stomach) uptake, individual animals",[11]; no pretargeting antibody,0.329 %ID/g
same,"脑 (brain) uptake, individual animals",[11]; no pretargeting antibody,0.197 %ID/g
"C[C@@H](NC(=O)[C@H](CNC(=O)C[C@@H](N)c1ccccc1Br)NC(=O)CN(CCN(CCN(CC(=O)O)CC(=O)O)CC(=O)O)CC(=O)O)C(=O)N[C@H](CCCCNC(=O)CNC(=O)CCC(=O)NCCc1c[nH]cn1)C(=O)N[C@H](C)C(=O)N[C@H](CCCCNC(=O)CNC(=O)CCC(=O)NCCc1c[nH]cn1)C(N)=O [IMP 375, DTPA-Dpr(2-Br-Phe-CHNH2-CH2-CO-)-D-Ala-D-Lys(HSG)-D-Ala-D-Lys(HSG)-NH2] ({DTPA}-[Dap](X2)[dA][dK]([Gly-Suc-NH(2-(imidazol-4-yl)ethyl)])[dA][dK]([Gly-Suc-NH(2-(imidazol-4-yl)ethyl)])-NH2)",stability of Al18F complex relative to IMP 272,[12],显著更稳定
"NC(=O)[C@@H](CCCCNC(=O)CNC(=O)CCC(=O)NCCc1c[nH]cn1)NC(=O)[C@@H](CCC(=O)O)NC(=O)[C@@H](CCCCNC(=O)CNC(=O)CCC(=O)NCCc1c[nH]cn1)NC(=O)[C@@H](Cc1ccc(O)cc1)NC(=O)CN1CCN(CC(=O)O)CCN(CC(=O)O)CCN(CC(=O)O)CC1 [111In-IMP 288, metal not drawn] ({DOTA}-[dY][dK]([Gly-Suc-NH(2-(imidazol-4-yl)ethyl)])[dE][dK]([Gly-Suc-NH(2-(imidazol-4-yl)ethyl)])-NH2)",kidney uptake,"[4]; 0.1 nmol peptide, independent of bsMAb dose",2 %ID/g
NOTA-ITC苄基-D-Ala-D-Lys(HSG)-D-Tyr-D-Lys(HSG)-NH2 [IMP 449],activity still attached to peptide,[2]; 15 min,9.8 %
same,activity still attached to peptide,[2]; 1 h,7.6 %
same,decomposition of metal-18F-peptide complex,"[2]; prepared with ascorbic acid as stabiliser, serum 37℃, 4 h",没有可检测的分解
same,18F-labelled peptide stable in serum,"[2]; human serum 37℃, at least 1 h",91 %
same,18F-labelled peptide stable in serum,"[2]; human serum 37℃, at least 4 h",76 %
DLIEEAASRIVDAVIEQVKAAGAY [Ht-31],PKA isoform preference,[3],对PKA的RII同种型更大的亲和力
